# Experiments:
# [1] = target: T1, Muscarinic acetylcholine receptor M3 (Homo sapiens, UniProt P20309); details: CHO
# Target sequence in this assay (P20309 whole entry, looked up): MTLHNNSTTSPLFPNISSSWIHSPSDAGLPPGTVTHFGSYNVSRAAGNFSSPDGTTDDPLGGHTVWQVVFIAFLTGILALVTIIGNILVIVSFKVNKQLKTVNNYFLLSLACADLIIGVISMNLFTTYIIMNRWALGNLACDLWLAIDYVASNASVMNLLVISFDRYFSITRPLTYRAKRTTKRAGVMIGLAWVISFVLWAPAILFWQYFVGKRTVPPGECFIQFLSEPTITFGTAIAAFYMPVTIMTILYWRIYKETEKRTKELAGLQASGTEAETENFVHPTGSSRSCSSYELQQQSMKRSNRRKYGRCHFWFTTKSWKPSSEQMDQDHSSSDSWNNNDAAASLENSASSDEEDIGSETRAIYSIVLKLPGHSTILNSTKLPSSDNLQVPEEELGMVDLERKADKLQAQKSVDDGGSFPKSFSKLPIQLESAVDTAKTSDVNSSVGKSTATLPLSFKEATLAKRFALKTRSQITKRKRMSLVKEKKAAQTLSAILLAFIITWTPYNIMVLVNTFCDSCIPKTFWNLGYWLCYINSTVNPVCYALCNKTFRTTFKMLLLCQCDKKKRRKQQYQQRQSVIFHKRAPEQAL
# [2] = target: T2, Muscarinic acetylcholine receptor M4 (Homo sapiens, UniProt P08173); test: Displacement of [3H]-NMS from human recombinant M4 receptor expressed in CHO cells after 24 hrs by filter binding assay; assay type: cell-based
# T2 sequence (P08173 whole entry): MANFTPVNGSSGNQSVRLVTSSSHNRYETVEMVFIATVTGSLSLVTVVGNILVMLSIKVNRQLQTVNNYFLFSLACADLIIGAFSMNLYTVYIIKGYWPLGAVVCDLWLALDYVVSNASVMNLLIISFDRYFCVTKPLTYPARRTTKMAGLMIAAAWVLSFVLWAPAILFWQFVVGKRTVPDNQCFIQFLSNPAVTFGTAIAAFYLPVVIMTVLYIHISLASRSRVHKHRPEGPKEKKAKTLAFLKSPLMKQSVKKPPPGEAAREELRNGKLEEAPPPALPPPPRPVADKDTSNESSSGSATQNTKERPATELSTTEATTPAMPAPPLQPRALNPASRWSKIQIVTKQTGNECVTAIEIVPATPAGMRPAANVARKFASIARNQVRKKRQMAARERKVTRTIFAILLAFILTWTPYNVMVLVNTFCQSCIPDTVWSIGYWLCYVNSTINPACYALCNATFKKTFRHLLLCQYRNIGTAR
# [3] = target: T3, Muscarinic acetylcholine receptor M1 (Homo sapiens) (UniProt P11229); test: Displacement of [3H]-NMS from human recombinant M1 receptor expressed in CHO cells assessed as dissociation half life at 100 fold human M1 receptor binding Ki concentration after 24 hrs by dilution-offset filter binding assay; assay type: cell-based
# T3 sequence (whole entry): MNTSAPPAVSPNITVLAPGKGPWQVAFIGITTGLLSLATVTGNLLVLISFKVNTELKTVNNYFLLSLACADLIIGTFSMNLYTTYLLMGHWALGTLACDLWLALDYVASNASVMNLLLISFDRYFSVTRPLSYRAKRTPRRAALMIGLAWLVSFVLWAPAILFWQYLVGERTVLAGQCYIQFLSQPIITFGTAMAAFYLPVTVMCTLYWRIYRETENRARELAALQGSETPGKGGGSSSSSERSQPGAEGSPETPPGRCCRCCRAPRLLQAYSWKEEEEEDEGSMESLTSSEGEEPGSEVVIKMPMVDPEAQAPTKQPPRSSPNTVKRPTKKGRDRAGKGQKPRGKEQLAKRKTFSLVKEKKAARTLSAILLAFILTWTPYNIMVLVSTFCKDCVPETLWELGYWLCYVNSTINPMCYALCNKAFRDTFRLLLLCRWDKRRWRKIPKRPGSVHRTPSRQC
# [4] = target: T4, Muscarinic acetylcholine receptor M4 (Homo sapiens) (UniProt P08173); test: Displacement of [3H]-NMS from human recombinant M4 receptor expressed in CHO cells assessed as dissociation half life at 100 fold human M4 receptor binding Ki concentration after 24 hrs by dilution-offset filter binding assay; assay type: cell-based
# T4 sequence (whole entry): T2 sequence (P08173 whole entry)
# [5] = test system: Canis familiaris; test: Bronchodilator activity in methacholine challenged Beagle dog assessed as intrinsic duration of action at 10 ug intratracheally administered as single dose in micelle solution; assay type: functional, Canis lupus familiaris
# [6] = test system: Canis familiaris; test: Bronchodilator activity in Beagle dog assessed as inhibition of methacholine-induced lung resistance after cumulative intratracheal administration in micelle solution at hourly intervals challenged each time 1 hr later with methacholine; assay type: functional, Canis lupus familiaris
# [7] = target: T1, Muscarinic acetylcholine receptor M3
# Target sequence in this assay (P20309 whole entry, looked up): as the sequence (P20309 whole entry, looked up) above
# Description: Displacement of radioligand from M3 receptor assessed as dissociation half life
# [8] = target: Muscarinic acetylcholine receptor M3 (Cavia porcellus) (UniProt Q8VH26); test: Antagonist activity at M3 receptor in Dunkin-Hartley guinea pig tracheal strips assessed as time taken for electrically field-stimulated contractile response to recover by 25 percent of inhibition at Emax after 2 hrs; assay type: functional
# [9] = target: T1, Muscarinic acetylcholine receptor M3; details: CHO; remark: listed apart in the source
# Target sequence in this assay (P20309 whole entry, looked up): as the sequence (P20309 whole entry, looked up) above
# [10] = target: T1, Muscarinic acetylcholine receptor M3; remark: listed apart in the source
# Target sequence in this assay (P20309 whole entry, looked up): as the sequence (P20309 whole entry, looked up) above
# [11] = target: T5, Muscarinic acetylcholine receptor M5 (Homo sapiens) (UniProt P08912); test: Displacement of [3H]-NMS from human recombinant M5 receptor expressed in CHO cells assessed as dissociation half life at 100 fold human M5 receptor binding Ki concentration after 24 hrs by dilution-offset filter binding assay; assay type: cell-based
# T5 sequence (whole entry): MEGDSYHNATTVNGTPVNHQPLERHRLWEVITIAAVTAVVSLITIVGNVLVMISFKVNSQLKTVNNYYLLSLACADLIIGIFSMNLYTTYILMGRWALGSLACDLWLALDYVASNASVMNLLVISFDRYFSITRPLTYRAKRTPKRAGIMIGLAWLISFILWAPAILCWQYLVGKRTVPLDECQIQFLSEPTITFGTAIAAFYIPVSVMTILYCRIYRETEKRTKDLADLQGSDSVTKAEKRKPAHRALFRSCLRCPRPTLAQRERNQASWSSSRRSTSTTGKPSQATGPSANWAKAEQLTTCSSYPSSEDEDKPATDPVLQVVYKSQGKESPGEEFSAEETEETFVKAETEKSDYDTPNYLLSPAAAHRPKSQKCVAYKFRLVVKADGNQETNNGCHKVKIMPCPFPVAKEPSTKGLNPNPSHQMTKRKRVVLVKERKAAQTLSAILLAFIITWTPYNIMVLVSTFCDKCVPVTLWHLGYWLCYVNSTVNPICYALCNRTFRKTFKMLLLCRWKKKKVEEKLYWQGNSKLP
# [12] = target: T6, Muscarinic acetylcholine receptor M2 (Homo sapiens) (UniProt P08172); test: Displacement of [3H]-NMS from human recombinant M2 receptor expressed in CHO cells assessed as dissociation half life at 100 fold human M2 receptor binding Ki concentration after 24 hrs by dilution-offset filter binding assay; assay type: cell-based
# T6 sequence (whole entry): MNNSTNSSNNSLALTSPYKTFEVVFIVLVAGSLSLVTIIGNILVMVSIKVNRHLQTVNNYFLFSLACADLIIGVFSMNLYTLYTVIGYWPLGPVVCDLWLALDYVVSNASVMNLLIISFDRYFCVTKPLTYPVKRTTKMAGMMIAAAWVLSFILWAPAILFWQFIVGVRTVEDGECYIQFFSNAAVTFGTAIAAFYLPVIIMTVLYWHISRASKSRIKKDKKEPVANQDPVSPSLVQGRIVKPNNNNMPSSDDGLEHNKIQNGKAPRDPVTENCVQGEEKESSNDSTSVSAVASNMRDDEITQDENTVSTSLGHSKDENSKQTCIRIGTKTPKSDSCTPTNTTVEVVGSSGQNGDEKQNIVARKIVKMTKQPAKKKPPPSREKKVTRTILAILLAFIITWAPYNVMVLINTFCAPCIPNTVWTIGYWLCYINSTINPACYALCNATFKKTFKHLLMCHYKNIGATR
# [13] = target: T7, Muscarinic acetylcholine receptor M5 (Homo sapiens, UniProt P08912); test: Displacement of [3H]-NMS from human recombinant M5 receptor expressed in CHO cells after 24 hrs by filter binding assay; assay type: cell-based
# T7 sequence (P08912 whole entry): T5 sequence (whole entry)
# [14] = Intrinsic clearance in human liver microsomes assessed per mg of protein in presence of NADPH
# [15] = target: T1, Muscarinic acetylcholine receptor M3; test: Displacement of [3H]-NMS from human recombinant M3 receptor expressed in CHO cells after 2 hrs by filter binding assay; assay type: cell-based
# Target sequence in this assay (P20309 whole entry): as the sequence (P20309 whole entry, looked up) above
# [16] = target: T8, Muscarinic acetylcholine receptor M2 (Homo sapiens, UniProt P08172); test: Displacement of [3H]-NMS from human recombinant M2 receptor expressed in CHO cells after 2 hrs by filter binding assay; assay type: cell-based
# T8 sequence (P08172 whole entry): T6 sequence (whole entry)
# [17] = target: T1, Muscarinic acetylcholine receptor M3; test: Antagonist activity at human recombinant M3 receptor expressed in CHO-K1 cells assessed as inhibition of carbamoyl choline-induced calcium currents after 4 hrs by fluorimetry; assay type: functional, cell-based
# Target sequence in this assay (P20309 whole entry): as the sequence (P20309 whole entry, looked up) above
# [18] = target: Muscarinic acetylcholine receptor M3 (Cavia porcellus, UniProt Q8VH26); test: Antagonist activity at M3 receptor in Dunkin-Hartley guinea pig tracheal strips assessed as inhibition of electrically field-stimulated contractile response after 8 hrs; assay type: functional
# [19] = test system: Cavia porcellus; test: Bronchodilator activity in Dunkin-Hartley guinea pig assessed as inhibition of […] lung resistance after cumulative intratracheal administration in micelle solution at hourly intervals challenged each time 1 hr later with methacholine; assay type: functional, organism-based
# [20] = Intrinsic clearance in human hepatocytes assessed per million cells
# [21] = Intrinsic clearance in human liver microsomes assessed per mg of protein by glucuronidation assay in presence of Brijj-58 and UDPGA
# [22] = Apparent permeability across basolateral to apical side in human Caco2 cells; assay type: ADME, cell-based; details: Caco-2
# [23] = Apparent permeability across apical to basolateral side in human Caco2 cells; assay type: ADME, cell-based; details: Caco-2
# Sequence of Muscarinic acetylcholine receptor M3 (Cavia porcellus) (Q8VH26 1-587): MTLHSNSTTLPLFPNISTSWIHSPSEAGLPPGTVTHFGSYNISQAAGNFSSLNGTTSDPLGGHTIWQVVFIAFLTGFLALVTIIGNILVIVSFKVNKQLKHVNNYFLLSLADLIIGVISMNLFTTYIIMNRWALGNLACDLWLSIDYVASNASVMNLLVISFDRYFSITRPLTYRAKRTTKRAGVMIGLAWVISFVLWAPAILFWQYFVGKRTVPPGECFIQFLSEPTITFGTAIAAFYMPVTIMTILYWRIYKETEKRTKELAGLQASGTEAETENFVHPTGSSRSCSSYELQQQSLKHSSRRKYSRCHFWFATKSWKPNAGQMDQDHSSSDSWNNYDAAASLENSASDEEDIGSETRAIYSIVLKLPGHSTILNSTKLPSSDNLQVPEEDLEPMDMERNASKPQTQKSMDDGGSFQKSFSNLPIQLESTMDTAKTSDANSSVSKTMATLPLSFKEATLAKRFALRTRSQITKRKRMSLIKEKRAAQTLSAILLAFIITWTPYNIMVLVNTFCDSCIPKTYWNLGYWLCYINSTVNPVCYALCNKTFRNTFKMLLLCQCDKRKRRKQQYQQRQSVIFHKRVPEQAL
# Sequence of Muscarinic acetylcholine receptor M3 (Cavia porcellus, UniProt Q8VH26) (Q8VH26 whole entry): as the sequence (Q8VH26 1-587) above
smiles,measurement,setting,value
C[N+]1(C)[C@@H]2C[C@@H](OC(=O)C(O)(c3cccs3)c3cccs3)C[C@H]1[C@@H]1O[C@@H]12.O.[Br-] [TIOTROPIUM BROMIDE],T1/2,[1],> 24 h
same,Ki,[2],0.0078 nM
same,T1/2,[3],> 23.8 h
same,T1/2,[4],> 24 h
same,Time,[5],32 h
same,ID50,[6],3 µg
same,T1/2,[7],9.45 h
same,TIME,[8],> 12.9 h
same,T1/2,[9],> 22.8 h
same,pKb,[10],10.2
same,T1/2,[11],> 24 h
same,T1/2,[12],> 13 h
same,Ki,[13],0.0266 nM
CC(C)(CCC(C(N)=O)(c1ccccc1)c1ccccc1)N1CC(Oc2ccccc2)C1,T1/2,[1],8.02 h
same,microsomal CLint,[14],> 440 µL/min/mg
same,Ki,[15],0.11 nM
same,Ki,[16],0.056 nM
CC(C)(CCC(C(N)=O)(c1ccccc1)c1ccccc1)N1CC[C@H](Oc2ccc(O)cc2)C1,T1/2,[1],3.82 h
same,Ki,[17],0.76 nM
CC(C)(CCC(C(N)=O)(c1ccccc1)c1ccccc1)N1CC[C@@H](Oc2cccc(O)c2)C1,IC50,[18],3.87 nM
same,TIME,[8],> 16 h
same,ED50,[19],20 µg
CC(C)(CCC(C(N)=O)(c1ccccc1)c1ccccc1)N1CC(Oc2ccc(Cl)c(O)c2)C1,T1/2,[1],23.5 h
same,microsomal CLint,[14],116 µL/min/mg
same,hepatocyte CLint,[20],159 µL/min/1e6 cells
same,microsomal CLint,[21],430 µL/min/mg
same,Ki,[17],1.9 nM
CC(C)(CCC(C(N)=O)(c1ccccc1)c1ccccc1)N1CC(Oc2cccc(O)c2F)C1,IC50,[18],3.48 nM
same,TIME,[8],> 16 h
same,ED50,[19],4 µg
CC(C)(CCC(C(N)=O)(c1ccccc1)c1ccccc1)N1CC(Oc2cc(O)cc(Cl)c2)C1,microsomal CLint,[14],361 µL/min/mg
same,hepatocyte CLint,[20],116 µL/min/1e6 cells
same,microsomal CLint,[21],223 µL/min/mg
same,Ki,[17],0.22 nM
CC(C)(CCC(C(N)=O)(c1ccccc1)c1ccccc1)N1CCC(Oc2ccccc2)CC1,T1/2,[1],17.5 h
same,Ki,[15],3.9 nM
same,Ki,[16],2.6 nM
CC(C)(CCC(C(N)=O)(c1ccccc1)c1ccccc1)N1CC[C@H](Oc2ccc(Cl)c(O)c2)C1,T1/2,[1],13.4 h
same,Ki,[17],2 nM
CC(C)(CCC(C(N)=O)(c1ccccc1)c1ccccc1)N1CC[C@H](Oc2ccccc2)C1,T1/2,[1],> 24 h
same,Ki,[15],1.8 nM
same,Papp B→A,[22],13 ×10⁻⁶ cm/s
same,Ki,[16],1.6 nM
same,Papp A→B,[23],16 ×10⁻⁶ cm/s
same,Ki,[17],0.25 nM
CC(C)(CCC(C(N)=O)(c1ccccc1)c1ccccc1)N1CC[C@@H](Oc2ccccc2)C1,T1/2,[1],> 24 h
same,Ki,[15],6.4 nM
same,Ki,[16],12 nM
same,Ki,[17],1.6 nM
CC(C)(CCC(C(N)=O)(c1ccccc1)c1ccccc1)N1CC[C@H](Oc2cccc(O)c2)C1,IC50,[18],4.3 nM
same,TIME,[8],> 16 h
same,ED50,[19],10 µg
CC(C)(CCC(C(N)=O)(c1ccccc1)c1ccccc1)N1CC(Oc2cc(O)cc(F)c2)C1,microsomal CLint,[14],176 µL/min/mg
same,microsomal CLint,[21],403 µL/min/mg
CC(C)(CCC(C(N)=O)(c1ccccc1)c1ccccc1)N1CC[C@@H](Oc2cc(O)cc(F)c2)C1,T1/2,[1],> 24 h
same,microsomal CLint,[14],> 440 µL/min/mg
same,hepatocyte CLint,[20],114 µL/min/1e6 cells
same,Ki,[17],0.56 nM
CC(C)(CCC(C(N)=O)(c1ccccc1)c1ccccc1)N1CC(Oc2ccccc2O)C1,Ki,[17],11 nM
CC(C)[N+]1(C)C2CCC1CC(OC(=O)C(CO)c1ccccc1)C2.O.[Br-] (stereo not given),ID50,[6],10 µg
same,TIME,[8],1.47 h
CC(C)(CCC(C(N)=O)(c1ccccc1)c1ccccc1)N1CC(OCc2cccc(O)c2)C1,T1/2,[1],20.7 h
same,microsomal CLint,[14],364 µL/min/mg
same,hepatocyte CLint,[20],34 µL/min/1e6 cells
same,microsomal CLint,[21],13 µL/min/mg
same,Ki,[17],0.18 nM
NC(=O)C(CCCN1CC[C@H](Oc2ccccc2)C1)(c1ccccc1)c1ccccc1,T1/2,[1],0.633 h
same,Ki,[15],1.9 nM
same,Ki,[16],15 nM
same,Ki,[17],2.4 nM

# From ChEMBL document CHEMBL1909511, “Inhalation by design: novel tertiary amine muscarinic M₃ receptor antagonists with slow off-rate binding kinetics for inhaled once-daily treatment of chronic obstructive pulmonary disease” (J Med Chem, 2011)
